US8138220B2, “[2-(6-fluoro-1H-indol-3-ylsulfanyl)benzyl]methyl amine for the treatment of affective disorders” (H. Lundbeck A/S, priority 2006, dated 2012)
Several values for one entry are separate records, joined by “and”; a condition that tells them apart may be missing. Equal values may be shown once.

Key:
[1] = biological target: T1, human alpha1A-7 receptors (Homo sapiens, UniProt P35348); assay: α1A functional assay, adrenaline evoked Ca2+ release in CHO cells (FLIPR); type: cell-based; conditions: CHO cells expressing human alpha1A-7 receptors
T1 sequence (P35348 1-423 limits assumed): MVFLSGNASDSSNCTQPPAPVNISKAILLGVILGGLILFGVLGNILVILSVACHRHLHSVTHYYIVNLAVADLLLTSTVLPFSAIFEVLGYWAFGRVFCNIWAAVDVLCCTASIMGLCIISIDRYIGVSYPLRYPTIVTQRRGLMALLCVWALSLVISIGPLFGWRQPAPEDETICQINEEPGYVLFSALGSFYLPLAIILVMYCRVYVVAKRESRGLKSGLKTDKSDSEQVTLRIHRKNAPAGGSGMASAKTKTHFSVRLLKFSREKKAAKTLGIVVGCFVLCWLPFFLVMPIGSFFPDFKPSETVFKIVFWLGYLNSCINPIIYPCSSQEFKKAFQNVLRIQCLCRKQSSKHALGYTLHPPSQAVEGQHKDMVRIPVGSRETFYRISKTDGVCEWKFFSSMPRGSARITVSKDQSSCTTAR
Protocol: All cells were cultured in DMEM medium supplemented with 10% BCS, 4 mM L-glutamine (or 2 mM in the case of COS-7), and 100 units/ml penicillin plus 100 μg/ml streptomycin, at 37° C., in 5% CO2.
Twenty-four hours prior to assays, CHO cells expressing the human alpha1A-7 receptors were seeded into 384-well black wall microtiter plates coated with poly-D-lysine. Culture medium was aspirated and cells were dye-loaded with 1.5 μM Fluo-4 in assay buffer composed of Hank's Balanced Salt Solution (138 mM NaCl, 5 mM KCl, 1.3 mM CaCl2, 0.5 mM MgCl2, 0.4 mM MgSO4, 0.3 mM KH2PO4, 0.3 mM Na2HPO4, 5.6 mM glucose) plus 20 mM HEPES pH 7.4, 0.05% BSA and 2.5 mM probenicid (50 μl/well) for 1 hour in 5% CO2 at 37° C. After excess dye was discarded, cells were washed in assay buffer and layered with a final volume equal to 45 μl/well (or 30 ul/well for antagonist assay). […] Laser excitation energy was adjusted so that basal fluorescence readings were approximately 8,000 relative fluorescent units (RFU). Cells were then stimulated at room temperature with agonists diluted in assay buffer (15 μl), and RFU were measured at 1.5 second intervals over a period of 2.5 min. Maximum change in fluorescence was calculated for each well. Concentration-response curves derived from the maximum change in fluorescence were analyzed by nonlinear regression (Hill equation). […]

rat 5-HT2A receptor = rat 5-HT2A receptor (Rattus norvegicus, UniProt P14842); assay: Ki for rat versus human 5-HT2A receptor; type: binding
α1A receptor = biological target: T2, α1A receptor (Homo sapiens, UniProt P35348); assay: α1A receptor affinity, [3H]-Prazosin binding to membranes; conditions: Cheng Prusoff
T2 construct: expressed in transfected cells
T2 sequence (P35348 1-466): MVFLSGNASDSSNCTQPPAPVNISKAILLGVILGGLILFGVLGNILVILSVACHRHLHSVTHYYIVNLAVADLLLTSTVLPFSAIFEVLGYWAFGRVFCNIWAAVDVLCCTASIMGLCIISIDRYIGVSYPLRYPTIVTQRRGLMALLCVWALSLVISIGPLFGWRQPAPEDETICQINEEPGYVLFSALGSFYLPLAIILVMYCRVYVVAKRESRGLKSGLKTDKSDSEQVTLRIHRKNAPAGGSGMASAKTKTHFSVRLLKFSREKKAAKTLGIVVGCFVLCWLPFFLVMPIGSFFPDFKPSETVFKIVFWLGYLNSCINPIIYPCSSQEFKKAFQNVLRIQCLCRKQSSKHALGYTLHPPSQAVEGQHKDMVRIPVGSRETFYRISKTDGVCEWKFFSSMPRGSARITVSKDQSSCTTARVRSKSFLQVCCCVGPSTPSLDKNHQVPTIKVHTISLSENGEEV
Protocol: On the day of the experiments membranes (see below for description of membrane preparation) are thawed and homogenized in buffer using an ultra turrax and diluted to the desired concentration (5 μg/well˜5 μg/900 μl, store on ice until use).
The experiment is initiated by mixing of 50 μl test compound, 50 μl [^3H]-Prazosin and 900 μl membranes, and the mixture is incubated for 20 minutes at 25° C. Non-specific binding is determined in the presence of 10 μM WB-4101 and the total binding is determined in the presence of buffer. After the incubation, bound ligand is separated from unbound by filtration through Unifilter GF/B, presoaked in 0.1% PEI for 30 minutes, using a Tomtec Cell Harvester program (D4.2 . . . 4) 96 well. Filters are washed 3 times with 1 ml ice-cold buffer, dried at 50° C. and 35 μl scintillation liquid/well is added to the filters. Bound radioactivity is counted in a Wallac OY 1450 MicroBeta. The affinity (Ki 10 nM) is calculated from Y=100/(1+10^(X-logIC50^)) where Y denotes % binding and X denotes the concentration of compound. […] Ki was calculated from the Cheng Prusoff equation Ki=(IC50/(1+([L]/Kd))
Cells were grown to 95% confluence, washed twice with buffer (50 mM Tris pH 7.7, 125 mM NaCl) and detached by scraping in a volume of 10 ml buffer/160 cm^2. […] Protein concentration was measured with BCA™ (Pierce #23223+23224).

[2] = test system: telemeterised Beagle dogs; assay: Effect on blood pressure in telemeterised Beagle dogs; type: in vivo, dog
Protocol: The cardiovascular effects of compounds of the present invention were investigated in telemeterised Beagle dogs in the doses 0.25, 0.50 and 1.0 mg/kg given by gavage. Amount of compound is calculated as the free base. Six dogs were used in the experiment, three males and three females.

5-HT2A receptors = 5-HT2A receptors (Homo sapiens, UniProt P28223); assay: 5-HT2A functional assay, 5-HT evoked Ca2+ release in CHO cells (FLIPR)
Chain of 5-HT2A receptors (P28223 whole entry): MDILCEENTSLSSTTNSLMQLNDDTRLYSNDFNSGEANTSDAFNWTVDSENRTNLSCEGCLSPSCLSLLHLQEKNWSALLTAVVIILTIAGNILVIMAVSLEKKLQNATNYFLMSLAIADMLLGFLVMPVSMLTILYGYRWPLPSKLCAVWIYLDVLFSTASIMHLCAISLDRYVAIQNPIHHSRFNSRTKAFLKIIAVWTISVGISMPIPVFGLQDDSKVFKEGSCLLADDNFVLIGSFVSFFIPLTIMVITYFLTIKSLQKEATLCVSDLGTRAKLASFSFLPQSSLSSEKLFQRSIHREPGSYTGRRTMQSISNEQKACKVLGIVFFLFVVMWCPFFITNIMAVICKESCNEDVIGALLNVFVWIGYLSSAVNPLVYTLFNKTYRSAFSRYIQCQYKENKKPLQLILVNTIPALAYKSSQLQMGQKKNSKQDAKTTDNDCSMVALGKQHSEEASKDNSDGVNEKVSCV
Protocol: The experiment was carried out as follows. 2 or 3 days before the experiment CHO cells expressing approximately 250 fmol/mg 5-HT2A receptors are plated at a density sufficient to yield a mono-confluent layer on the day of the experiment. […] Lacer intensity was set to a suitable level to obtain basal values of approximately 8000-10000 fluorescence units. The variation in basal fluorescence should be less than 10%. […] Test substances are added to the cells 5 minutes before the 5-HT.

Chain of rat 5-HT2A receptor (P14842 whole entry): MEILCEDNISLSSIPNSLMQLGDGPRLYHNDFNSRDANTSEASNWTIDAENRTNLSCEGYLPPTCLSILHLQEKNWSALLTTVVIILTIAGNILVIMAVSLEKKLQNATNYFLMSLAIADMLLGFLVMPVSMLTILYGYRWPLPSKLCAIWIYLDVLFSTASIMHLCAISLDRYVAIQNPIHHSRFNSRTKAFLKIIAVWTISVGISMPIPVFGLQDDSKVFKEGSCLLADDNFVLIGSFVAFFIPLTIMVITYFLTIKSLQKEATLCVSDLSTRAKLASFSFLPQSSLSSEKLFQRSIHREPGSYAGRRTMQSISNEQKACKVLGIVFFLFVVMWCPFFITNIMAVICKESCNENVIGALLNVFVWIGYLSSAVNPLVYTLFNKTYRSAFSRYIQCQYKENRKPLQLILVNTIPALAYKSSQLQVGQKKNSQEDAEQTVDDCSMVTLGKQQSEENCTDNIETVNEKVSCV

CNCc1ccccc1Sc1c[nH]c2cc(F)ccc12 [compounds of the present invention, [2-(6-fluoro-1H-indol-3-ylsulfanyl)benzyl]methyl amine]
Kb [1]: 64 nM | Ki rat 5-HT2A receptor higher than human 5-HT2A receptor (rat 5-HT2A receptor): ~40 fold | Ki (α1A receptor): 14 nM and 10 nM | Systolic arterial blood pressure (Change from baseline (mean ± SD)) (10-380 min) ([2]; 0.25 mg/kg by gavage): −4.26 ± 5.98 | Systolic left ventricular pressure (Change from baseline (mean ± SD)) Post-dose period I (10-380 min) ([2]; 0.25 mg/kg by gavage): −3.82 ± 3.42^♀ | Systolic arterial blood pressure (Change from baseline (mean ± SD)) (10-380 min) ([2]; 0.50 mg/kg by gavage): −9.77 ± 5.39 | Systolic left ventricular pressure (Change from baseline (mean ± SD)) Post-dose period I (10-380 min) ([2]; 0.50 mg/kg by gavage): −11.13 ± 4.05^♂♀ | Systolic arterial blood pressure (Change from baseline (mean ± SD)) (10-380 min) ([2]; 1.00 mg/kg by gavage): −6.30 ± 6.63 | Systolic left ventricular pressure (Change from baseline (mean ± SD)) Post-dose period I (10-380 min) ([2]; 1.00 mg/kg by gavage): −3.08 ± 5.37^♂,♀ | Kb (5-HT2A receptors): 130 nM | pA2 (5-HT2A receptors; schild analysis, CHO cells expressing 5-HT2A, 5-HT curves with 150, 400, 1500, 4000 nM compound): 6.88
